In patent publication US20240122214A1, “COMPOSITIONS, METHOD OF MAKING AND METHOD OF USE THEREOF” (EPC NATURAL PRODUCTS CO., LTD, priority 2014, published 2024):
Read-outs that look alike come from different tables or passages of the source.

Tests used:
[1] = test system: Caco-2 cell layers; assay: Caco-2 barrier integrity: TEER and xylitol passage (Example 2); type: cell-based, Human; details: 1 g/L xylitol reference
Method: Caco-2 cells were seeded on 0.4 μm trans-well inserts for monolayer formation and fast differentiation. […] Therefore, cell culture medium containing 13.5 g/L glucose and 1 g/L xylitol with or without the indicated concentrations of rubusoside plant extract or phloretin was placed as donor solution onto the apical compartment. The effect on barrier integrity was analyzed by measuring TEER after 0, 0.5, 1, 1.5, 2 and 3 hours (Panels A, C and E) and by including xylitol as a reference substance for the paracellular permeability of the cell layer (Panels B, D and F). Xylitol concentrations of the samples taken were measured by HPLC. Error bars are based on the standard error of the mean (n=2).
Caco-2 (165,000 cells/insert) cells were seeded on 0.4 μm trans-well inserts for monolayer formation and fast differentiation (enterocyte differentiation medium). […] Briefly, cell culture medium containing 13.5 g/L glucose and 1 g/L xylitol with or without the indicated concentrations of rubusoside plant extract or phloretin was placed as donor solution onto the apical compartment. Samples were collected from the basolateral compartment (HEPES buffer) after 0, 0.5, 1, 1.5, 2 and 3 hours. Glucose and xylitol concentrations of the samples were measured by HPLC. Cell layer integrity was confirmed by TEER measurements (Millicell ERS-2 Voltometer) at each sampling time point.

[2] = test system: glucose transport across the Caco-2 cell monolayer; assay: Glucose transport assay in Caco-2 trans-well model (Example 1); type: cell-based; details: Homo sapiens, 13.5 g/L glucose apical, phloretin 100 mg/L, read-out: Glucose transport compared to untreated control [% of control]
Method: Caco-2 cells were seeded on 0.4 μm trans-well inserts for monolayer formation and fast differentiation. On day 5, glucose transport across the cell monolayer was performed. Therefore, cell culture medium containing 13.5 g/L glucose and 1 g/L xylitol with or without the indicated dilutions of extracts or phloretin (100 mg/L) was placed as donor solution onto the apical compartment. Samples were collected from the basolateral compartment (HEPES buffer) after 0, 0.5, 1, 1.5, and 2 hours. Glucose concentrations of the samples were measured by HPLC.
Caco-2 cells were seeded on 0.4 1.tm trans-well inserts for monolayer formation and fast differentiation (enterocyte differentiation medium). On day 5, glucose transport across the cell monolayer was performed. Therefore, cell culture medium containing 13.5 g/L glucose and 1 g/L xylitol with or without the indicated concentrations of rubusoside plant extract or phloretin was placed as donor solution onto the apical compartment. Samples were collected from the basolateral compartment (HEPES buffer) after 0, 0.5, 1, 1.5, and 2 hours. Glucose and xylitol concentrations of the samples were measured by HPLC. Cell layer integrity was confirmed by TEER measurements (Millicell ERS-2 Voltometer) at each sampling time point.

[3] = test system: glucose transport across the Caco-2 cell monolayer; assay: Glucose transport assay in Caco-2 trans-well model (Example 2); type: cell-based, Human; details: 0-3 h, result in words
Method: Caco-2 cells were seeded on 0.4 μm trans-well inserts for monolayer formation and fast differentiation. On day 5, glucose transport across the cell monolayer was performed. […] Samples were collected from the basolateral compartment (HEPES buffer) after 0, 0.5, 1, 1.5, 2 and 3 hours. Glucose concentrations of the samples were measured by HPLC. […] Error bars are based on the standard error of the mean (n=2). *p<0.05 indicates a significant difference from the control (two-way ANOVA, Tukey's multiple comparison test).
Caco-2 (165,000 cells/insert) cells were seeded on 0.4 μm trans-well inserts for monolayer formation and fast differentiation (enterocyte differentiation medium). On day 5, glucose transport across the cell monolayer was performed. […] Samples were collected from the basolateral compartment (HEPES buffer) after 0, 0.5, 1, 1.5, 2 and 3 hours. Glucose and xylitol concentrations of the samples were measured by HPLC. Cell layer integrity was confirmed by TEER measurements (Millicell ERS-2 Voltometer) at each sampling time point.

[4] = depends on the tested concentration compared with sucrose; cited from earlier work

| Compound | xylitol permeability of treated cell layers [1] | activity at 100 µg/mL ([2]; 0.5 h) | activity at 100 µg/mL ([2]; 1.0 h) | inhibitory effect on glucose transport [3] | times sweeter than sucrose [4] |
| --- | --- | --- | --- | --- | --- |
| O=C(CCc1ccc(O)cc1)c1c(O)cc(O)cc1O [Phloretin, phloretin] | highest | 36% | 54% | strongly reduced glucose absorption | – |
| O=S(=O)([O-])NC1CCCCC1.[Na+] [sodium cyclamate] | – | – | – | – | about 30 times |
| OC[C@H]1O[C@H](O[C@]2(CCl)O[C@H](CCl)[C@@H](O)[C@@H]2O)[C@H](O)[C@@H](O)[C@H]1Cl [sucralose] | – | – | – | – | about 600 times |
| thaumatin | – | – | – | – | about 2000 times |
